This note sets out measurements from paper PMC5814047, “Peptidic inhibitors of insulin-degrading enzyme with potential for dermatological applications discovered via phage display” (PLoS ONE, 2018).

Bridge positions count the residues as written; N and C are the ends. Peptide text beside a SMILES is read from it.

For the experiment, the target named is T1, IDE (Homo sapiens, UniProt P14735).
T1 construct: made in house; host or cells: bacteria
T1 sequence (P14735 1-1019): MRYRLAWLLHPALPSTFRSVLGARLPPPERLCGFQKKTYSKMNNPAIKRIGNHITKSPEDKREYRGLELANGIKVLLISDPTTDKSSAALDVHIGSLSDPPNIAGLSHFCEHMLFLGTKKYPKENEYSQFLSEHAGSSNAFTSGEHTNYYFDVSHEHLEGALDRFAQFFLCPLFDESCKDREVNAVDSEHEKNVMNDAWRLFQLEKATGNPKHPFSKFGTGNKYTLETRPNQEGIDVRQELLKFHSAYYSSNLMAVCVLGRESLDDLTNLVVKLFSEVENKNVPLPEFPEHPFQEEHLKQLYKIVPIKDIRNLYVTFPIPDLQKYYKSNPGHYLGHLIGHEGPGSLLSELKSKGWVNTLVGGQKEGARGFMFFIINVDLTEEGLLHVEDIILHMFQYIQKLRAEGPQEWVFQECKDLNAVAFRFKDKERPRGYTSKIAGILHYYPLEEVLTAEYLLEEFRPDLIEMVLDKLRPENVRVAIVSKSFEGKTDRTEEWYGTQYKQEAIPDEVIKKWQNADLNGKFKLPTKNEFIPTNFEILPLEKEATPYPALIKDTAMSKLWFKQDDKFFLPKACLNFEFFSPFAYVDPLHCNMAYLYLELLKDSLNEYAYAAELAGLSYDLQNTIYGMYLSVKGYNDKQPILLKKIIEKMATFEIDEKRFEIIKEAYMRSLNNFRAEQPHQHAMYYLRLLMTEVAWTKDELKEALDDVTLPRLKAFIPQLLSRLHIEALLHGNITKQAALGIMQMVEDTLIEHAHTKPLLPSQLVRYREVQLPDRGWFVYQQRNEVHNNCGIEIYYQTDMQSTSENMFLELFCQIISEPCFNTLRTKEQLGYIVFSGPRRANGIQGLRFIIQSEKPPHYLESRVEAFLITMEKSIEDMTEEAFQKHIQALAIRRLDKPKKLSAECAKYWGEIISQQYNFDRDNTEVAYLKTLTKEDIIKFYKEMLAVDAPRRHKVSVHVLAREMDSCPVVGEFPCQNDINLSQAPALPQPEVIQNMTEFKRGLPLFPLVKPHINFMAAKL
As to the kind of experiment: IDE activity assay, FAßB (amyloid ß-protein) degradation (fluorescence polarization). Format: biochemical. On the procedure: Taken together with the potency of all peptides against insulin (Table 1), we concluded that P12-3A represented the best inhibitor for further studies, and a highly purified, deliberately cyclized version (Fig 3A) was synthesized. […] Based on its potency, stability and selectivity for IDE, P12-3A was selected for use in downstream assays.
IDE activity was quantified by monitoring the degradation of Mca-[…](Dnp) (FRET1, 5 μM), fluoresceinated and biotinylated amyloid ß-protein (FAßB; 500 nM) or recombinant human insulin (50 nM) in PBS supplemented with 0.05% BSA. FRET1 degradation was measured by changes in fluorescence (λex = 340 nm, λem = 420 nm); FAßB degradation was monitored by fluorescence polarization (λex = 488 nm, λem = 525 nm), as described; and insulin degradation was quantified by ELISA. In vitro activity assays incorporated recombinant human IDE (1 nM) purified from bacteria. For quantitation of insulin degradation in primary murine skin fibroblasts, cells (1 x 10^5/well) were plated in 96-well plates and maintained in DMEM supplemented with 10% fetal bovine serum (FBS), 2mM glutamine, penicillin and streptomycin. After addition of insulin (10 nM or 100 nM), samples of conditioned medium were removed daily and quickly frozen, then insulin levels were quantified in parallel by ELISA according to manufacturer’s recommendations (Crystal Chem, Downers Grove, IL, USA). Assessment of the activity of P12-3A against a variety of matrix-metalloproteases was conducted using the Matrix Metalloproteinase (MMP) Inhibitor Profiling Kit, Fluorometric RED (Enzo Life Sciences, Inc., Farmingdale, NY, USA) according to manufacturer’s recommendations using the broad-spectrum MMP inhibitor, NNGH, as a positive control.

For the compound `CC(C)C[C@H](NC(=O)[C@H](CO)NC(=O)[C@@H](N)CCC(N)=O)C(=O)N1CCC[C@H]1C(=O)N[C@@H](Cc1c[nH]c2ccccc12)C(=O)N[C@H]1CSSC[C@@H](C(=O)N[C@H](C(=O)N[C@H](C(N)=O)[C@@H](C)O)C(C)C)NC(=O)[C@H](Cc2c[nH]cn2)NC(=O)[C@@H]2CCCN2C(=O)[C@H](Cc2ccc(O)cc2)NC1=O` [P12-3A] (H-QSLPWCYPHCVT-NH2; disulfide 6-10 (inferred)), under “FAßB, P12-3A 0.0005 uM, Replicates 4-6, read-out: Percent Activity (normalized source data)”, the remaining activity at 0.0005 µM was determined as 103%. The remaining activity at 0.0016 µM (FAßB, P12-3A 0.0016 uM, Replicates 4-6, read-out: Percent Activity (normalized source data)) was 102%. For the same compound, where the note is “FAßB, P12-3A 0.005 uM, Replicates 4-6, read-out: Percent Activity (normalized source data)”, the remaining activity at 0.005 µM amounted to 103%. In addition, the remaining activity at 0.016 µM (FAßB, P12-3A 0.016 uM, Replicates 4-6, read-out: Percent Activity (normalized source data)) amounted to 77.6%. Besides, under “FAßB, P12-3A 0.050 uM, Replicates 4-6, read-out: Percent Activity (normalized source data)”, the remaining activity at 0.05 µM was determined as 88.7%. Besides, the remaining activity at 0.12 µM (FAßB, P12-3A 0.12 uM, Replicates 1-3, read-out: Percent Activity (normalized source data)) turned out to be 96.6%. Also, the remaining activity at 0.16 µM (FAßB, P12-3A 0.16 uM, Replicates 4-6, read-out: Percent Activity (normalized source data)) was 93.1%. The remaining activity at 0.24 µM (FAßB, P12-3A 0.24 uM, Replicates 1-3, read-out: Percent Activity (normalized source data)) came out at 79.9%. Also, for the setting “FAßB, P12-3A 0.49 uM, Replicates 1-3, read-out: Percent Activity (normalized source data)”, the remaining activity at 0.49 µM came out at 73.7%. In addition, the remaining activity at 0.5 µM (FAßB, P12-3A 0.50 uM, Replicates 4-6, read-out: Percent Activity (normalized source data)) is 85.8%. The remaining activity at 0.98 µM (FAßB, P12-3A 0.98 uM, Replicates 1-3, read-out: Percent Activity (normalized source data)) was determined as 66.9%. Where the note is “FAßB, P12-3A 1.6 uM, Replicates 4-6, read-out: Percent Activity (normalized source data)”, the remaining activity at 1.6 µM was found to be 61.7%. Also, the remaining activity at 3.91 µM (FAßB, P12-3A 3.91 uM, Replicates 1-3, read-out: Percent Activity (normalized source data)) was determined as 48.4%. Also, the remaining activity at 5 µM (FAßB, P12-3A 5.0 uM, Replicates 4-6, read-out: Percent Activity (normalized source data)) turned out to be 48.4%. For the same compound, the remaining activity at 7.81 µM (FAßB, P12-3A 7.81 uM, Replicates 1-3, read-out: Percent Activity (normalized source data)) is 43.4%. For the same compound, for the setting “FAßB, P12-3A 15.6 uM, Replicates 1-3, read-out: Percent Activity (normalized source data)”, the remaining activity at 15.6 µM was 45.5%. For the same compound, for the setting “FAßB, P12-3A 31.2 uM, Replicates 1-3, read-out: Percent Activity (normalized source data)”, the remaining activity at 31.2 µM came out at 38.5%. The remaining activity at 62.5 µM (FAßB, P12-3A 62.5 uM, Replicates 1-3, read-out: Percent Activity (normalized source data)) turned out to be 10.9%. In addition, the remaining activity at 250 µM (FAßB, P12-3A 250 uM, Replicates 1-3, read-out: Percent Activity (normalized source data)) amounted to 9.54%. The “inhibition of IDE in the selectivity panel” value (P12-3A 100 μM, S4 Fig) is “significant inhibition was observed exclusively for IDE”.
